From patent publication US20210317454A1, “USE OF A TLR9 AGONIST IN METHODS FOR TREATING COVID-19” (priority 2020, published 2021)
“Also recorded” adds a separate entry of the source. Read-outs that look alike come from different tables or passages of the source.

Columns and labels:
SARS-CoV2 [1] = assay type: cell-based
[2] = test system: mediastinal lymph node immune cells; assay type: in vivo, BL6 mice; settings: both pre and post-infection administration; B cells, CD4+, CD8+, granulocytes, macrophages, dendritic cells
Calu3 cells = settings: dilutions above this excluded from analyses of conditions 1 and 2
SARS-CoV2 [3] = settings: for toxicity in mice: intranasal 2.5 mg/kg, 8 BL6 mice
HCV = settings: cited from earlier work
[4] = test system: B16. F10 melanoma mouse models of colon carcinoma pulmonary metastasis; settings: intranasal administration at very low doses compared with subcutaneous; cited from earlier work
[5] = test system: B16. F10 melanoma pulmonary metastasis; settings: intranasal versus subcutaneous; cited from earlier work
tumor microenvironment = settings: cited from earlier work

Substance: tilsotolimod: phosphorothioate oligonucleotide agonist of TLR9, sequence 5LTCG1AACG1TTCG1-X-G1CTTG1CAAG1CT-5′, X glycerol linker, G1 2′-deoxy-7-deazaguanosine (SEQ ID NO. 1) (DNA TCGAACGTTCGGCTTGCAAGCT; phosphorothioate, 7-deazaG, glycerol-linked 3'-3' dimer; (3)..(3) 2′-deoxy-7-deazaguanosine; (7)..(7) 2′-deoxy-7-deazaguanosine; (11)..(12) Linked by is a glycerol linker; (11)..(11) 2′-deoxy-7-deazaguanosine; (12)..(12) 2′-deoxy-7-deazaguanosine; (16)..(16) 2′-deoxy-7-deazaguanosine; (20)..(20) 2′-deoxy-7-deazaguanosine)
- antiviral activity compared with controls (SARS-CoV2 [1]; treatment condition 1: 24 h pre-treatment, then infection for 48 hours): None of the serial dilutions for treatment condition 1 (tilsotolimod 24 h pre-treatment) resulted in significant antiviral activity
- reduction in TCID50 (SARS-CoV2 [1]; treatment condition 2: co-treatment with SARS-CoV2 for 48 hours, most effective dilution 0.41 μM): ~1 log
- reduction in TCID50 (SARS-CoV2 [1]; treatment condition 3: supernatant of 24 h pretreated Calu3 cells added to fresh cells then infected, 1:10 serial dilution (33 μM)): ~3 log
- number of immune cells in the mediastinal lymph nodes [2]: robust infiltration of immune cells; also recorded: robust changes in the number of immune cells
- concentration above which tilsotolimod induced toxicity (Calu3 cells): above 3 μM
- infectious SARS-CoV2 titer (TCID50/Lung) (SARS-CoV2 [3]; intranasal 2.5 mg/kg one day after virus exposure, lungs three days post-infection): reduced infection, although not statistically significant
- toxicity in mice (SARS-CoV2 [3]; post-treatment group): No toxicity was observed
- toxicity in mice (SARS-CoV2 [3]; pre-treatment group): one mouse died, and two showed signs of reduced mobility
- viral load reductions (HCV; 0.16 mg/kg twice weekly plus ribavirin compared with pegIFN-α2a plus ribavirin): greater
- rapid viral response (HCV; HCV-infected patients, all dose groups): none of the patients achieved rapid viral response
- tolerability (HCV; subcutaneous 0.08, 0.16, 0.32 mg/kg once weekly and 0.16 mg/kg twice weekly, 4 weeks, with ribavirin): well tolerated with no discontinuations due to treatment-emergent adverse events
- cytokine storm (HCV; tilsotolimod trials involving HCV): cytokine storm was not observed
- tumor-specific CTLs in tracheobronchial lymph nodes [4]: significant increase
- antitumor potency of intranasal relative to subcutaneous treatment [5]: approximately 25 times
- Type I IFN pathway and dendritic cell maturation (tumor microenvironment; IFNα gene signature, MHC class I expression, patient biopsies): Activation of the Type I IFN pathway (induction of an IFNα gene signature) followed by maturation of dendritic cells
- time to immune effects in the tumor microenvironment (tumor microenvironment; biopsies after receiving tilsotolimod): ≤ 24 h
- CD8+ cytotoxic T lymphocytes and tumor response (tumor microenvironment; injected and non-injected tumors): systemic increases in CD8+ cytotoxic T lymphocytes (CTLs) with subsequent reduction of both injected and non-injected tumors
